Structures are written as SMILES. Where two headings read alike, the source gives them in different places.

The results in this text go back to patent US20020160932A1, “Uncompetitive inhibitors of helicase-primase” (priority 2000, published 2002).

In experiment [1] the test system is Acyclovir-resistant HSV-1 (F) mutants. Description: microbe, parasite or virus in culture. It counts as cell-based, herpes simplex virus 1.
Experiment [2] has as its system clinical isolates (39 HSV-1 and 19 HSV-2 isolates). The experiment in a line: activity on clinical isolates. It counts as cell-based, herpes simplex virus. The conditions noted are these: 39 HSV-1 and 19 HSV-2 isolates tested.
In another experiment the test system is HSV-2 MS. The experiment in a line: in vivo lethal challenge model, HSV-2 MS.
In another experiment the test system is HSV-2 G. Description: in vitro viral replication assay, human HSV-2 G.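 For SI human HSV-2 G: ratio of CC50 to antiviral IC50.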 It counts as cell-based, herpes simplex virus 2. The conditions noted are these: for IC50: in vitro viral replication assay; for SI human HSV-2 G: selectivity index SI=(CC50/IC50).
The subject of experiment [3] is Active substance-resistant HSV-1 (F) mutants. The conditions noted are these: read-out: IC50 Active substance-resistant HSV-1 (F) mutants; Mutant 1 (UL5 M355V, UL5 V6621, UL52 A897T).
The next experiment concerns Wild-type HSV-1 (F). The experiment in a line: in vitro viral replication assay, wild-type HSV-1 (F).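 For SI Wild-type HSV-1 (F): ratio of CC50 to antiviral IC50.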 The conditions noted are these: for IC50: in vitro viral replication assay, read-out: IC50 Wild-type HSV-1 (F); for SI Wild-type HSV-1 (F): selectivity index SI=(CC50/IC50). It counts as cell-based, herpes simplex virus 1.
In another experiment the test system is PRV. Description: cells. It counts as cell-based, porcine (PRV).
A further experiment has as its system BHV. Description: in vitro viral replication assay, bovine BHV.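 For SI bovine BHV: ratio of CC50 to antiviral IC50.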 It counts as cell-based.
Another experiment deals with HSV-1 Walkie. Description: in vivo lethal challenge model, HSV-1 Walki.
The test system of experiment [4] is Active substance-resistant HSV-1 (F) mutants. Description: microbe, parasite or virus in culture. Conditions: Human alphaherpesvirus 1, read-out: IC50 Active substance-resistant HSV-1 (F) mutants.
Where [5] appears, read: p.o., mice, 3 times a day for 5 days, survival.

Experimental for HSV-1 Walkie: (§1) 6-week old female mice, strain BALB/cABom, were purchased from a commercial breeder (Bomholtgard Breeding and Research Centre Ltd).
(§2) The animals were anaesthetized with diethyl ether (Merck) in a sealed glass vessel. 50 μl of a dilution of the virus stock (dose for infection 5×10^4 Pfu) were introduced with an Eppendorf pippette into the nose of the anaesthetized animals. This dose leads to death of 90-100% of the animals due to a generalized infection with prominent respiratory and central nervous symptoms after on average between 5 and 8 days.
(§3) 6 hours after the infection, the animals were treated with doses of 0.1-100 mg/kg of body weight 3 times day at 7.00 h, 14.00 h and 19 h over a period of 5 days. The substances were dissolved in DMSO and resuspended in Tylose/PBS (Hoechst) (final concentration 1.5% DMSO, 0.5% Tylose in PBS).
(§4) After the last administration, the animals were observed further and the times of death were recorded.
Experimental for HSV-2 MS: as §1, §2, §3, §4

What is called IC50 is the concentration needed to halve the response being measured. As to `Cc1nc(N(C)C(=O)Nc2ccc(N3CCOCC3)cc2)sc1S(=O)(=O)N(C)C` [Example 1], the IC50 in [1] (in vitro viral replication assay, read-out: IC50 Acyclovir-resistant HSV-1 (F) mutants) was 750 nM; with HSV-2 G it was 1500 nM; in experiment [3] it was above 250000 nM; with Wild-type HSV-1 (F), 750 nM; in the experiment on PRV (read-out: IC50 porcine PRV) it was 4000 nM; in the experiment with BHV (in vitro viral replication assay), 1500 nM. The “activity on clinical isolates” value in experiment [2] is on record as “active on all the clinical isolates tested to date”. Besides, the “in vivo lethal challenge model HSV-2 MS ED50” value in the experiment with HSV-2 MS (setting [5]) was “weak”. Moreover, the “SI human HSV-2 G” value in the experiment on HSV-2 G came out at 167. Besides, the “SI Wild-type HSV-1 (F)” value in the experiment on Wild-type HSV-1 (F) came out at 350. Further, the “SI porcine PRV” value with PRV is above 63. Besides, in the experiment on BHV (selectivity index SI=(CC50/IC50)), the “SI bovine BHV” value was above 167. In the experiment with HSV-1 Walkie (setting [5]), the “in vivo lethal challenge model HSV-1 Walkie ED50” value turned out to be 60 mg/kg.
The ED50 is the dose that gives a 50% effect, or the effect in half of the subjects. In the case of `Nc1nc2c(ncn2COCCO)c(=O)[nH]1` [Acyclovir, acyclovir, reference compound], the IC50 was 125000 nM in experiment [1] (Human alphaherpesvirus 1, read-out: IC50 Acyclovir-resistant HSV-1 (F) mutants); 4000 nM in the experiment on HSV-2 G (Human alphaherpesvirus 2); 1000 nM in [4]; 1000 nM with Wild-type HSV-1 (F) (Human alphaherpesvirus 1). The ED50 with HSV-2 MS (Human alphaherpesvirus 2, in Mus musculus, po, 120 h, read-out: in vivo lethal challenge model HSV-2 MS ED50, p.o., mice, 3 times a day for 5 days, survival) worked out at 16 mg/kg; with HSV-1 Walkie (Human alphaherpesvirus 1, in Mus musculus, po, 120 h, read-out: in vivo lethal challenge model HSV-1 Walkie ED50), 22 mg/kg. Further, the “SI human HSV-2 G” value in the experiment with HSV-2 G is given as 125. For the same compound, the “SI Wild-type HSV-1 (F)” value in the experiment on Wild-type HSV-1 (F) was found to be 250.
